From ChEMBL document CHEMBL2384919, “Identification of New Nonsteroidal RORα Ligands; Related Structure-Activity Relationships and Docking Studies” (ACS Med Chem Lett, 2013)
Activity calls are given as the source filed them. No cut-off for these calls is given here.

How the values were obtained:
[1] = target: T1, Nuclear receptor ROR-alpha (Homo sapiens) (UniProt P35398); experiment: Partial agonist activity at GST-fussed RORalpha (unknown origin) assessed as recruitment of TIF2 mutant-BAP protein after overnight incubation by pull down assay
T1 sequence (whole entry): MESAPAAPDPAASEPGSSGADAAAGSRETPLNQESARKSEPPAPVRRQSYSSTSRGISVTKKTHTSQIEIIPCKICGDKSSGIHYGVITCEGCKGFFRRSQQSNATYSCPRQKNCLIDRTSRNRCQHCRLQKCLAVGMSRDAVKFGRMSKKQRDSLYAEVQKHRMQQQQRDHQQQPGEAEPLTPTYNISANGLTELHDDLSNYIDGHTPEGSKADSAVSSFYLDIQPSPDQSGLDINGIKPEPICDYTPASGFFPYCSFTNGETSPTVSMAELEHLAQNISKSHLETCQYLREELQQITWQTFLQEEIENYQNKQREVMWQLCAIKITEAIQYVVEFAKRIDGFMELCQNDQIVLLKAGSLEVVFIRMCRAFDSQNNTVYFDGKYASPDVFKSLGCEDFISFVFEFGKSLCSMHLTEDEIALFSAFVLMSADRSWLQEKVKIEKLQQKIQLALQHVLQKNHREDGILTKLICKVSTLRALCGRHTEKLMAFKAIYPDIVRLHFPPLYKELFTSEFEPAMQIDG

[2] = target: T1, Nuclear receptor ROR-alpha (Homo sapiens); experiment: Partial agonist activity at GST-fussed RORalpha (unknown origin) assessed as recruitment of TIF2-BAP protein at 30 uM after overnight incubation by pull down assay relative to 7DC
[3] = target: T2, Nuclear receptor ROR-alpha (Homo sapiens, UniProt P35398); experiment: Partial agonist activity at GST-fussed RORalpha (unknown origin) assessed as recruitment of TIF2-BAP protein after overnight incubation by pull down assay
T2 sequence (P35398 whole entry): T1 sequence (whole entry)

[4] = target: T1, Nuclear receptor ROR-alpha (Homo sapiens); experiment: Partial agonist activity at GST-fussed RORalpha (unknown origin) assessed as recruitment of TIF2-BAP protein after overnight incubation by pull down assay relative to 7DC

| SMILES | Activity [1] | Activity [2] | EC50 [3] | Emax [4] |
| --- | --- | --- | --- | --- |
| CCOC(=O)C1=C(C)NC(=O)NC1c1ccc(OCCCc2ccccc2)c(OC)c1 (racemic) | inactive | inactive | – | – |
| CCOc1cc(C2NC(=O)NC(C)=C2C(C)=O)ccc1OCc1ccccc1Cl (single isomer, unassigned; enantiomer 1) [listing 1 of 2 here] | – | – | 10.9 µM | – |
| COc1cc(C2NC(=O)NC(C)=C2C(=O)OCC2CCCCC2)ccc1OCc1ccccc1 (racemic) | inactive | inactive | – | – |
| COc1cc(C2NC(=O)NC(C)=C2C(=O)O)ccc1OCc1ccccc1 (racemic) | inactive | inactive | – | – |
| CCC(C)NC(=O)C1=C(C)NC(=O)NC1c1ccc(OCc2ccccc2)cc1 (racemic) | inactive | inactive | – | – |
| COC(=O)C1=C(C)NC(=O)NC1c1ccc(OCc2ccccc2)c(OC)c1 (racemic) | inactive | – | 13.1 µM | 33% |
| CC1=C(C(=O)OCCOc2ccccc2)C(c2ccc(OCc3ccccc3)cc2)NC(=O)N1 (racemic) | – | – | 8.1 µM | 39% |
| CCOC(=O)C1=C(CC)NC(=O)NC1c1ccc(OCc2ccccc2)c(OC)c1 (racemic) | inactive | – | > 30 µM | > 45% |
| COc1cc(C2NC(=O)NC(C)=C2C(=O)OCC2CCCO2)ccc1OCc1ccccc1 (racemic) | inactive | inactive | – | – |
| COc1cc(C2NC(=O)NC(C)=C2C(C)=O)ccc1OCc1ccccc1Cl (racemic) | inactive | – | 28.2 µM | 48% |
| COc1cc(C2NC(=O)NC(C)=C2C(=O)OCC(F)(F)F)ccc1OCc1ccccc1 (racemic) | inactive | – | > 30 µM | 80% |
| COc1cccc(COC(=O)C2=C(C)NC(=O)NC2c2ccc(OCc3ccccc3)c(OC)c2)c1 (racemic) | inactive | – | 26.2 µM | 55% |
| COc1cc(C2NC(=O)NC(C)=C2C(N)=O)ccc1OCc1ccccc1 (racemic) | inactive | inactive | – | – |
| COc1cc(C2NC(=O)NC(C)=C2C(=O)OCCOC(C)C)ccc1OCc1ccccc1 (racemic) | inactive | inactive | – | – |
| CCOC(=O)C1=C(C)NC(=O)N(C)C1c1ccc(OCc2ccccc2)c(OC)c1 (racemic) | inactive | – | > 30 µM | 19% |
| CCCCOC(=O)C1=C(C)NC(=O)NC1c1ccc(OCc2ccccc2)c(OC)c1 (racemic) | inactive | – | 14 µM | 58% |
| CCOc1cc(C2NC(=O)NC(C)=C2C(C)=O)ccc1OCc1ccccc1Cl (stereo in doubt; 1) [listing 1 of 2 here] | – | – | 12.7 µM | – |
| COc1cc(C2NC(=O)NC(C)=C2C(=O)OCc2ccccc2)ccc1OCc1ccccc1 (racemic) | inactive | – | > 30 µM | 44% |
| CCOC(=O)C1=C(C)NC(=O)NC1c1ccc(OCc2ccccc2)cc1 (racemic) | inactive | – | 4.3 µM | 25% |
| COc1cc(C2NC(=O)NC(C)=C2C(=O)OCCc2ccccc2)ccc1OCc1ccccc1 (racemic) | inactive | inactive | – | – |
| CCOC(=O)C1=C(C)N(C)C(=O)NC1c1ccc(OCc2ccccc2)c(OC)c1 (racemic) | inactive | – | > 19 µM | 29% |

| SMILES | Activity [1] | Activity [2] | EC50 [3] | Emax [4] |
| --- | --- | --- | --- | --- |
| COc1cc(C2NC(=O)NC(C)=C2C(C)=O)ccc1OCc1ccccc1 (racemic) | inactive | inactive | – | – |
| CCOC(=O)C1=C(C)NC(=O)NC1c1ccc(OCc2ccccc2)c(OC)c1 (racemic) | – | – | 8.9 µM | 56% |
| CCOC(=O)C1=C(C)NC(=O)NC1c1cc(OC)c(OC)cc1Cl (racemic) | inactive | inactive | – | – |
| CCOC(=O)C1=C(C)NC(=O)NC1c1ccc(OCCc2ccccc2)c(OC)c1 (racemic) | inactive | – | 20.3 µM | 36% |
| CCOC(=O)C1=C(C)NC(=O)NC1c1cc(OC)c(O)cc1Cl (racemic) | inactive | inactive | – | – |
| CC1=C(C(=O)OCC(C)C)C(c2ccc(OCc3ccccc3)cc2)NC(=O)N1 (racemic) | inactive | inactive | – | – |
| CCOC(=O)C1=C(C)NC(=O)NC1c1cc(OC)c(OCc2ccccc2Cl)cc1Cl (racemic) | – | – | 5.5 µM | 55% |
| COc1ccc(COC(=O)C2=C(C)NC(=O)NC2c2ccc(OCc3ccccc3)c(OC)c2)cc1 (racemic) | inactive | – | 10.9 µM | 19% |
| C=CCOC(=O)C1=C(C)NC(=O)NC1c1ccc(OCc2ccccc2)c(OC)c1 (racemic) | inactive | – | 22.9 µM | 76% |
| COc1cc(C2NC(=O)NC(C)=C2C(=O)NCc2ccccc2)ccc1OCc1ccccc1 (racemic) | inactive | inactive | – | – |
| CC1=C(C(=O)Nc2ccccc2)C(c2ccc(OCc3ccccc3)cc2)NC(=O)N1 (racemic) | inactive | inactive | – | – |
| CCOc1cc(C2NC(=O)NC(C)=C2C(C)=O)ccc1OCc1ccccc1Cl (stereo in doubt; 1) [listing 2 of 2 here] | inactive | – | – | 88% |
| COc1ccc(COC(=O)C2=C(C)NC(=O)NC2c2ccc(OCc3ccccc3)c(OC)c2)cc1OC (racemic) | inactive | – | 26.3 µM | 43% |
| CCOc1cc(C2NC(=O)NC(C)=C2C(C)=O)ccc1OCc1ccccc1Cl (single isomer, unassigned; enantiomer 2) [listing 1 of 2 here] | – | – | > 30 µM | – |
| COc1cc(C2NC(=O)NC(C)=C2C(=O)OCc2ccc3c(c2)OCO3)ccc1OCc1ccccc1 (racemic) | inactive | – | 12.5 µM | 70% |
| COc1cc(C2NC(=O)NC(C)=C2C(=O)OCCSC)ccc1OCc1ccccc1 (racemic) | inactive | – | > 30 µM | 27% |
| CCOc1cc(C2NC(=O)NC(C)=C2C(C)=O)ccc1OCc1ccccc1Cl (single isomer, unassigned; enantiomer 1) [listing 2 of 2 here] | inactive | – | – | 85% |
| CC1=C(C(=O)OCC(F)(F)F)C(c2ccc(OCc3ccccc3)cc2)NC(=O)N1 (racemic) | inactive | – | > 30 µM | 12% |
| CCOc1cc(C2NC(=O)NC(C)=C2C(C)=O)ccc1OCc1ccccc1Cl (single isomer, unassigned; enantiomer 2) [listing 2 of 2 here] | inactive | – | – | > 41% |
| CCCOc1ccc(C2NC(=O)NC(C)=C2C(=O)OCC)cc1OC (racemic) | inactive | inactive | – | – |
